Assays:
[1] = target: Protein kinase C (PKC); experiment: Inhibition of protein kinase C; format: protein assay, Rattus norvegicus
[2] = tested on: HT-29; experiment: Concentration required for inhibiting the growth of HT-29 cells; 0.1-1.0; format: functional, Homo sapiens
[3] = tested on: MR4; experiment: Concentration required for inhibiting the growth of MR4 cells; 0.1-1.0; format: functional, Mus musculus
[4] = tested on: MR4; experiment: Concentration required for inhibiting the growth of MR4 cells; 0.05-0.1; format: functional, Mus musculus
[5] = tested on: HT-29; experiment: Concentration required for inhibiting the growth of HT-29 cells; 0.05-0.1; format: functional, Homo sapiens

Row | Structure (SMILES) | I50 [1] | I80 [2] | I80 [3] | I80 [4] | I80 [5]
1 | CCCCCCCC(=O)OCC(COC)OC(=O)CCCCCCC (configuration not stated) | 0.1 mM | 0.1 mM | 0.1 mM |  | 
2 | CCCCCCCC(=O)OCC(COC(C)=O)OC(=O)CCCCCCC (configuration not stated) | 0.01 mM |  |  | 0.05 mM | 
3 | CCCCCCCC(=O)OCC(CO)OC(=O)CCCCCCC (configuration not stated) [MONOCTANOIN COMPONENT C] |  |  |  | 0.05 mM | 0.05 mM
